How the values were obtained:
primary cortical neurons [1] = assay: Immunofluorescence of LC3, LAMP1 and lysotracker in primary cortical neurons; format: cell-based, ICR mice; conditions: even in the presence of Aβ1-42 oligomers
Description: Cell culture: SH-SY5Y neuroblastoma cells were cultured at 37° C., 5% CO2., in Dulbecco's Modified Eagle Medium/Ham's F-12 nutrient mixture (DMEM/F12) (Invitrogen, Carlsbad, Calif.) supplemented with 10% heat-inactivated fetal bovine serum containing 100 units/ml penicillin, 100 μg/ml streptomycin. Primary cortical neuron cultures were derived from embryo day 18 (E18) from ICR mice. The dissociated cells were plated on glass cover slips coated with poly-D-lysine in Neurobasal medium supplemented with 2% B27 (Invitrogen), 100 units/ml penicillin, 100 μg/ml streptomycin, and 2 mM L-glutamine. Primary NSCs from normal mice were isolated from the subventricular zone (SVZ) of 8 week-old C57BL/6 mice brain. NSCs from adult Tg2576 mice brain were obtained from Seoul National University Hospital. […]
Immunocytochemistry: SH-SY5Y cells or adult NSCs were placed on glass coverslips coated with poly-L-ornithine/laminin or poly-D-lysine, respectively. […] The percentage of coefficient was calculated using the pixels above threshold of fluorescence intensities. […] The fluorescence intensity was observed under a confocal microscopy using a LSM700 microscope (Carl Zeiss). The number of LysoTracker puncta was analyzed with Icy software.

primary cortical neurons [2] = assay: Western blot of primary cortical neurons; format: cell-based, ICR mice
Description: Lysates were centrifuged at 13,000 rpm for 20 min at 4° C., and the protein content in the supernatant was determined using the Bradford assay (Bio-rad, Hercules, Calif.). For subcellular fractionation, cells were lysed with lysis buffer (250 mM Sucrose, 20 mM HEPES, pH 7.4, 10 mM KCl, 1.5 mM MgCl2, 1 mM EGTA, 1 mM EDTA, 1 mM DTT) containing protease inhibitor for 30 min on ice, followed by centrifugation at 720 g for 5 min at 4° C. Supernatants were centrifuged at 15,000 rpm for 10 min at 4° C., and the resulting supernatant was used as the cytosol fraction. After centrifugation at 720 g for 5 min, pellets were washed with lysis buffer and dissolved in nuclear lysis buffer (50 mM Tris HCl, pH 8.0, 150 mM NaCl, 1% NP40, 0.5% sodium deoxycholate, 0.1% SDS, 10% glycerol) as the nuclear fraction. Protein from each sample was subjected to 8%˜15% SDS-PAGE, and the resolved proteins were transferred to nitrocellulose or polyvinylidene fluoride membrane. The membranes were blocked with 5% nonfat milk powder in Tris-buffered saline/Tween 20 (TBST) for 1 h at room temperature, then incubated with anti-phospho-ERK (Cell signaling), anti-ERK (Cell signaling), anti-LAMP1 (Abcam), anti-LC3 (Cell signaling), anti-cathepsin B (Cell signaling), anti-p62 (Cell signaling), anti-p62 (5114, Cell signaling), anti-phospho-mTOR (5536, Cell signaling), anti-mTOR (2983, Cell signaling), anti-phospho-ULK1 (14202, Cell signaling), anti-ULK1 (8054, Cell signaling), anti-TFEB (852501, Biolegend), and anti-GAPDH (Cell signaling) overnight at 4° C.

[3] = Pharmacokinetic analysis, brain and plasma concentration after single oral administration; format: in vivo; conditions: normal mice
Description: Trametinib treatment: Trametinib (Medchemexpress, Monmouth Junction, N.J.) was micronized and suspended in the vehicle containing 5% mannitol, 1.5% hydroxypropyl methylcellulose and 0.2% sodium lauryl sulfate. For pharmacokinetic analysis, 0.05, 0.2 and 0.8 mg/kg of trametinib were orally administered to 7-week-old normal mice (ICR, n=5 per group) as a single administration. […] For studies on the change in pERK expression in normal mice and whole cell RNA sequencing study, 0.1 mg/kg/day of trametinib (in 4% DMSO+96% corn oil) was orally administered to 6-week old C57BL/6 mice (n=3 per group). Mice were sacrificed after 1, 2, 3, or 4 weeks of administration. 5XFAD mice (male, n=7˜10 per group) were divided into vehicle and trametinib treated groups. 12-month old mice received vehicle or 0.1 mg/kg of trametinib for 1 month by oral gavage once a day (These mice are referred to as “13-month old 5XFAD mice” in the Examples). […] Blood was obtained after completion of treatment.

[4] = system: neurons and neural stem cells (NSCs); conditions: in vitro, even in the presence of cytotoxic oligomers of Aβ1-42; cited from earlier work

In the case of `CC(=O)Nc1cccc(-n2c(=O)n(C3CC3)c(=O)c3c(Nc4ccc(I)cc4F)n(C)c(=O)c(C)c32)c1` [trametinib], the “co-staining of LC3-LAMP1” value (primary cortical neurons [1]) is reported as “increased co-staining of LC3-LAMP1”, the lysotracker-positive acidic puncta (primary cortical neurons [1]) is reported as “increased” and the “decrease of p-mTOR/mTOR ratio compared to Aβ1-42 treated alone group” value (primary cortical neurons [2]; 100 nM, co-treated with Aβ1-42) is reported as 67%. For the same molecule, the “decrease of pULK1(S757) to total ULK1 ratio compared to Aβ1-42 treated alone neurons” value (primary cortical neurons [2]; co-treated with Aβ1-42) was 29%, the “increase of mature cathepsin B level compared to vehicle treated control (CTL)” value (primary cortical neurons [2]; primary cortical neurons) was 54% and the “increase of mature cathepsin B level compared to Aβ1-42 treated alone group” value (primary cortical neurons [2]; primary cortical neurons treated with Aβ1-42 oligomers) was 73%. The Kp ([3]; ICR, mouse, brain and plasma, 0.8 mg/kg, highest dose group, read-out: brain/plasma exposure ratio (AUC)) was 0.477, the “penetration of the blood-brain barrier (BBB)” value [3] was “confirmed to penetrate the blood-brain barrier (BBB)” and the “neuronal differentiation and survival of neurons and NSCs” value [4] was “effective in inducing neuronal differentiation and promoting survival of neurons and neural stem cells (NSCs)”.

Source: patent US20220265657A1, “ADMINISTRATION METHOD AND DOSAGE REGIMEN FOR TREATMENT OF NEURODEGENERATIVE DISEASES USING TRAMETINIB AND MARKERS” (GENUV INC., priority 2019, published 2022)
